# Measurements reported in PMC6321145 (Molecules, 2018).
# Experiments:
# [1] = molecular target: T1, Aβ1–42 (Homo sapiens, UniProt P05067); assay: Inhibition of self-induced Aβ1–42 aggregation (ThT fluorescence assay); format: biochemical
# T1 construct: Aβ1–42 (Sigma, St. Louis, MO, USA; counterion, NaOH) stock solution was prepared by dissolving Aβ1–42 peptide in ammonium hydroxide; purchased Sigma
# Method: The formation and aggregation of Aβ1–42 in the brain leads to neurotoxicity in AD. In order to evaluate the activity of our new synthetic compounds to inhibit Aβ1–42 self-induced aggregation, the thioflavin (ThT) fluorescence assay was performed.
# All ThT experiments were performed according to our previously published methods. Aβ1–42 (Sigma, St. Louis, MO, USA; counterion, NaOH) stock solution was prepared by dissolving Aβ1–42 peptide in ammonium hydroxide (1% v/v), and diluting with 20 mM phosphate buffer (pH 7.4) to 100 μM. The tested compounds were firstly dissolved in DMSO at a concentration of 10 mM, and then diluted with 20 mM phosphate buffer (pH 7.4) to 40 μM.
# For the inhibition of self-induced Aβ1–42 aggregation. Aβ1–42 peptide (2 μL, 50 μM, final concentration) with the tested compound (2 μL, 20 μM, final concentration) or 20 mM phosphate buffer (2 μL) was incubated in 20 mM phosphate buffer (pH 7.4) at 37 °C for 72 h. After incubation, the samples were diluted to a final volume of 36 μL with 50 mM glycine-NaOH buffer (pH 8.5) containing 5 μM Thioflavin T. Fluorescence signal was measured (excitation wavelength 450 nm, emission wavelength 485 nm, and slit widths set to 5 nm) on a monochromator-based multimode microplate reader ([…] M1000, TECAN, Hombrechtikon, Switzerland), adapted for 384-well microtiter plates. […] Each compound was examined in triplicate.
# [2] = test system: SH-SY5Y cells; assay: Cellular ROS detection (DCFH-DA) in SH-SY5Y cells treated with t-BuOOH; format: cell-based, human; settings: compound 2.5 μM; 0.1 mM t-BuOOH; compared with Trolox
# Method: To further investigate their antioxidant activity in SH-SY5Y cells, cellular ROS detection assay based on dichlorofluorescein diacetate (DCFH-DA) was performed. with Trolox and N-acetyl-L-cysteine (NAC) as reference compounds.
# SH-SY5Y cells were maintained in Dulbecco’s modified Eagle’s medium (DEME) and supplemented with 1 mM glutamine, 10% fetal calf serum, 100 U/mL penicillin, and 100 μg/mL streptomycin. The cultures were maintained at 37 °C in a humidified incubator containing 5% CO2 and were passaged twice weekly.
# The antioxidant activity of the compounds in SH-SY5Y cells were tested with the fluorescent probe (2′,7′-dichlorofluorescein diacetate, DCFH-DA) as reported with some variation. SH-SY5Y cells were sub-cultured in 96-well plates at a seeding density of 1 × 10^4 cells per well for 24 h, then the medium was removed, the tested compounds (2.5 μM) was added and incubated for another 24 h at 37 °C. After that, the cells were washed with PBS and incubated with 5 μM DCFH-DA in PBS at 37 °C in 5% CO2 for 30 min. Then DCFH-DA was removed, the cells were washed three times and incubated with 0.1 mM t-BuOOH in PBS for 30 min. After the incubation, the cell fluorescence from each well was measured at 485 nm excitation and 535 nm emission with a monochromator based multimode microplate reader ([…] M1000).
# [3] = molecular target: T1, Aβ1–42; assay: Inhibition of Cu^2+-induced Aβ1–42 aggregation (ThT-binding assay); format: biochemical; settings: [Aβ] = 20 μM, [Cu^2+] = 20 μM, [compound] = 40 μM; 37 °C, 24 h
# Method: To investigate the ability of compound 6b1 to inhibit Cu^2+-induced Aβ1–42 aggregation, the ThT-binding assay was performed.
# Aβ was diluted in […] (pH 6.6) with […]. The mixture of the peptide (10 μL, 20 μM, final concentration) with or without copper (10 μL, 20 μM, final concentration) and the test compound (10 μL, 40 μM, final concentration) was incubated at 37 °C for 24 h. The 30 μL of the sample was diluted to a final volume of 200 μL with 50 mM glycine-NaOH buffer (pH 8.0) containing thioflavin T (5 μM). The detection method was the same as that of self-induced Aβ aggregation experiment.
# [4] = Cytotoxicity on SH-SY5Y cells (MTT); format: cell-based, human; settings: human, SH-SY5Y neuroblastoma cells; MTT, 24 h; mean ± SEM of three measurements
# Method: (§1) The cytotoxicity of our synthesized compounds was examined in human neuroblastoma SH-SY5Y cells. The cell viability was determined by using methyl thiazolyl tetrazolium (MTT) colorimetry, the cells were treated with different concentrations of compounds (0–100 μM). The result is shown in the Supplementary Materials (Table S1).
# (§2) The cytotoxicities of the compounds were evaluated using the MTT assay. SH-SY5Y cells were subcultured in 96-well plates at a seeding density of 1 × 10^4 cells per well. After 24 h, the medium was removed and treated with different concentrations of tested compounds for 24 h at 37 °C. The survival of cells was determined with MTT assay. Then 80 μL of medium and 20 μL of MTT (0.5 mg/mL, final concentration) were added to each well and incubated for another 4 h. After the removal of MTT, the formazan crystals were dissolved in DMSO. The amount of formazan was measured using a microculture plate reader at the wavelength of 570 nm. Each concentration was performed in triplicate.
# [5] = test system: SH-SY5Y cells; assay: Cytotoxicity on SH-SY5Y cells (MTT); format: cell-based, human; settings: 20 μM
# Method: as §1, §2
# [6] = test system: SH-SY5Y human neuroblastoma cells; assay: Protective effect against Aβ1–42-induced toxicity in SH-SY5Y cells (MTT); format: cell-based
# Method: The cytoprotective effect of compound 6b1 against Aβ1–42 damage in SH-SY5Y human neuroblastoma cell lines was determined by MTT assay. […] To investigate the protective effect of compound 6b1 on Aβ1–42 induced cell toxicity, SH-SY5Y cells exposed to Aβ1–42 (20 μM) were incubated with different concentrations of compound 6b1 (5, 10, and 20 μM) for 24 h, and the cell viability was tested.
# SH-SY5Y cells were seeded in 96-well plates (1 × 10^4 cells per well) and exposed to Aβ1–42 (20 μM) in the presence of compound 6b1 at the increasing doses (0, 5, 10 and 20 μM). After 24 h and 48 h, cell viability was measured by the MTT assay.
# [7] = molecular target: AChE (Homo sapiens, UniProt P22303); assay: AChE inhibition (data not shown); format: biochemical
# Sequence of AChE (P22303 32-614): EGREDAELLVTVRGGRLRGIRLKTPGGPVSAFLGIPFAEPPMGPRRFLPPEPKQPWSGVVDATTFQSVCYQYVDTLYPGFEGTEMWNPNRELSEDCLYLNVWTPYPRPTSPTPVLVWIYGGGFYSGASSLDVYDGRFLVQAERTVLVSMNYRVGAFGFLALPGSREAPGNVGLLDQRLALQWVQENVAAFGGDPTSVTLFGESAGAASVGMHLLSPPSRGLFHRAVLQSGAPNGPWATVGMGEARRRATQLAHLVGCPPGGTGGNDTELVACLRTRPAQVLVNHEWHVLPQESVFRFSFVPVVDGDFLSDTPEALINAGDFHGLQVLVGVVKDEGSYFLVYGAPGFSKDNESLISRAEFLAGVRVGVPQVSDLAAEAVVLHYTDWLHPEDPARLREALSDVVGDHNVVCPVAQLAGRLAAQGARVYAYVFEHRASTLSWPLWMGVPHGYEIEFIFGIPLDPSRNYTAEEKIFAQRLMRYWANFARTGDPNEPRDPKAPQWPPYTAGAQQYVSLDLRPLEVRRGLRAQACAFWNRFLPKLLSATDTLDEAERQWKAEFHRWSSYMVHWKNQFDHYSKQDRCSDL
# [8] = molecular target: BuChE (Homo sapiens, UniProt P06276); assay: BuChE inhibition (data not shown); format: biochemical
# Sequence of BuChE (P06276 29-602): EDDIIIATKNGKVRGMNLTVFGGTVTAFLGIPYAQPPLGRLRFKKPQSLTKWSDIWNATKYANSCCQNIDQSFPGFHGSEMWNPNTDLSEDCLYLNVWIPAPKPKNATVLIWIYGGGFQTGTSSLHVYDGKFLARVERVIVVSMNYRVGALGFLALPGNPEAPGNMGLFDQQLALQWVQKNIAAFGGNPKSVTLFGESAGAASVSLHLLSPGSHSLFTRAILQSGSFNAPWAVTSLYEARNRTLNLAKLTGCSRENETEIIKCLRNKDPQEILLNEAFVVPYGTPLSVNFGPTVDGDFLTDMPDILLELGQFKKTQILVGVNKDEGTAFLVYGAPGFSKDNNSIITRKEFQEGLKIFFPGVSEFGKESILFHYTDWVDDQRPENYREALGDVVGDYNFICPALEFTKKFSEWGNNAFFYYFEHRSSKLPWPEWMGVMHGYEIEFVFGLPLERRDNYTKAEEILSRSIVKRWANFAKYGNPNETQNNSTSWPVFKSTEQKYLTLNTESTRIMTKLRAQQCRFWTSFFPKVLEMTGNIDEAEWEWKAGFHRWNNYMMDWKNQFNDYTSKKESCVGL
# T1 sequence (P05067 672-713): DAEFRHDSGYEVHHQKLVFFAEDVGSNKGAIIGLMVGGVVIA
compound,measurement,setting,value
"CCN(CC)c1ccc(/C=C/c2cc(NCCCN(C)C)c3ccccc3n2)cc1 [Compound 6b1, (E)-N^1-(2-(4-(Diethylamino)styryl)quinolin-4-yl)-N^3,N^3-dimethylpropane-1,3-diamine]",IC50,"[1]; ThT fluorescence method, mean ± SD of three experiments, read-out: IC50 against self-induced Aβ1–42 aggregation",4.5 ± 0.7 µM
same,inhibition at 20 µM,"[1]; inhibitor 20 μM, Aβ1–42 50 μM, ThT, 37 °C, 72 h, mean ± SD",95.3 ± 1.2%
same,"Antioxidant activity in SH-SY5Y cells (ROS generation, DCFH-DA fluorescence)",[2],more antioxidant activity than Trolox
same,Inhibition of Cu^2+-induced Aβ aggregation,[3],85.8%
same,IC50 at 24 h,[4],254 µM
same,"Effect on SH-SY5Y cell viability, compound alone",[5],does not affect cell viability
same,Cell viability against Aβ1–42-induced cytotoxicity,"[6]; Aβ1–42 20 μM, compound 5, 10, 20 μM, 24 h",increased the cell viability
same,viability at 20 µM,"[6]; Homo sapiens, SH-SY5Y, 48 h, read-out: Cell viability after co-incubation with Aβ1–42",89.8%
same,Inhibitory activity toward AChE,[7],weak
same,Inhibitory activity toward BuChE,[8],weak
